Assay results reported in the METLIN SMRT retention time set (Domingo-Almenara et al. 2019).

Assay: gradient 5% acetonitrile 3 min, to 50% in 2 min, to 85% in 15 min, held 3 min, 100 µL/min
Conditions: column: Zorbax Extend-C18 2.1 x 50 mm; eluents: water / acetonitrile, 0.1% formic acid
Method in brief: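 Retention times come from adduct peaks that were picked computationally and then checked by hand. The standards, pure and pooled in mixtures of ~100 molecules, were run on a Zorbax Extend-C18 column (2.1 × 50 mm, 1.8 μm) at 100 μL/min with water and acetonitrile, each with 0.1% formic acid. Detection was by quadrupole time-of-flight mass spectrometry in positive and negative ionization mode, with a dead volume of 40 μL and a dwell volume of 900 μL.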

Row | Structure (SMILES) | RP-LC retention time
1 | CCn1ccc2sc(C)c(C(=O)NCc3ccc(F)cc3)c2c1=O | 798 s
2 | O=C(NCC1CC1)c1cn(C2CN(C(=O)Nc3ccc4c(c3)OCCO4)C2)nn1 | 685 s
3 | CSc1ccc(CNC(=O)C2CCCN(c3ncc(-c4ccccc4)cn3)C2)cc1 (stereo not drawn) | 1060 s
4 | CCOC(=O)c1ccsc1NC(=O)c1cc(C)nn1CC | 1080 s
5 | CCOC(=O)CSc1nc2c(sc3ccccc32)c(=O)n1CCc1c[nH]c2ccccc12 | 1220 s
6 | CCc1ccc(NC(=O)Cc2c(C)n(C)c3nc(-c4ccccc4)nn3c2=O)cc1 | 887 s
7 | CCn1ccc(C(=O)N2c3ccccc3CC2c2nc(C3CC3)no2)n1 (stereo not drawn) | 924 s
8 | Cc1cc(F)ccc1NS(=O)(=O)c1cc(-c2[nH]ncc2C(=O)N2CCCC2)oc1C | 728 s
9 | COCCNC(=O)C1CCCN(c2nccnc2Sc2ccccc2)C1 (stereo not drawn) | 810 s
10 | CC(C)NC(=O)C(=O)NCc1n[nH]c(=O)c2ccccc12 | 621 s
11 | O=C(NCc1cccc(C(F)(F)F)c1)C1CCN(c2nnc(-c3ccccc3)o2)CC1 | 896 s
12 | O=c1c2ccccc2ncn1Cc1noc(-c2cccc(Br)c2)n1 | 914 s
13 | Cn1cnc(S(=O)(=O)N2CCC(C(=O)Nc3cccc(C#N)c3)CC2)c1 | 674 s
14 | O=C(N[C@H]1C[C@@H]2C[C@H]1CN2C(=O)c1cc2c(s1)CCCC2)c1cccnc1 | 731 s
15 | CN(C)C(=O)c1ccc2c(c1)n(Cc1cccc(F)c1)c(=O)c1ccnn12 | 801 s
16 | COCCn1cc(CCNC(=O)Nc2ccc(F)c(Cl)c2)c2cccnc21 | 783 s
17 | CC(C)(C)c1csc(-c2csc(S(=O)(=O)NCc3ccc(F)cc3)c2)n1 | 1220 s
18 | Cc1ccc(N2C(=O)N(Cc3ccccc3)S(=O)(=O)c3cccnc32)cc1F | 1100 s
19 | COc1ccc(C(=O)CC2(O)C(=O)Nc3ccccc32)cc1 (stereo not drawn) | 669 s
20 | Cc1cc2n(n1)CCC(=O)N2CCCC(=O)N1CCOCC1 | 585 s
21 | Cc1ccsc1C(=O)Nc1ccc2c(c1)Sc1ncccc1C(=O)N2C(C)C | 886 s
22 | Cc1ccc(-c2nc(C)cc3nn(CC(=O)Nc4cccc(Br)c4)c(=O)n23)cc1 | 953 s

Row | Structure (SMILES) | RP-LC retention time
23 | CCc1ccc(S(=O)(=O)c2cnc(N3CCN(c4ccc(OC)cc4)CC3)nc2N)cc1 | 996 s
24 | COC(=O)NCc1nnnn1-c1ccc(OC)cc1 | 616 s
25 | Cc1cccc(CNC(=O)C2CCc3nc(N4CCOCC4)ncc3C2)c1 (stereo not drawn) | 723 s
26 | Cc1ccc(C(=O)NCCc2c[nH]c3ccc(F)cc23)cc1 | 841 s
27 | O=c1c2sccc2n(Cc2nc(-c3ccc(Cl)c(F)c3)no2)c(=O)n1Cc1ccccc1 | 1210 s
28 | COc1ccc(-c2nnc(-c3cc(S(=O)(=O)N4CCCCC4)ccc3Cl)o2)cc1 | 1150 s
29 | COc1ccc(N2CCN(S(=O)(=O)c3cc(-c4csc(C)n4)sc3C)CC2)cc1 | 1090 s
30 | CC(C)S(=O)(=O)c1cc2c(cc1NC(=O)c1cccc(F)c1)n(C)c(=O)n2C | 846 s
31 | Fc1ccc(-c2csc(Cc3nc(-c4ccc(Cl)cc4)no3)n2)cc1 | 1310 s
32 | Cc1nn(C)c(=O)c2cc(S(=O)(=O)NCc3ccccc3Cl)cn12 | 807 s
33 | O=C(NCC1CC1)c1cccc(OC2CN(Cc3cc4ccccc4nc3Cl)C2)c1 | 667 s
34 | COc1ccc(OC)c(CNC(=O)c2c(C)oc3c2C2=NCCN2C=N3)c1 | 638 s
35 | CCCN1C(=O)c2ccccc2C(C(=O)NC2CC2)C1c1cc(OC)c(OC)c(OC)c1 (stereo not drawn) | 696 s
36 | O=C(Nc1ccccc1Br)N1CCC(n2cnc3cccnc32)CC1 | 670 s
37 | CCCN1CCN(C(=O)c2cn(-c3ccc(-c4nc(C(C)(C)C)no4)cn3)cn2)CC1 | 681 s
38 | N#Cc1nc(-c2ccco2)oc1N1CCN(C(=O)c2ccccc2F)CC1 | 770 s
39 | Cc1ccc(NC(=O)CN2C(=O)CCCc3cc(S(=O)(=O)N4CCCC4)ccc32)cc1 | 855 s
40 | COc1cccc(S(=O)(=O)N2CCC(N3CCN(Cc4ccc(C)cc4)C(=O)C3=O)CC2)c1 | 861 s
41 | O=C(NC1CC1)c1ccc(CN2CCN(Cc3ccc(F)cc3)C(=O)C2=O)cc1 | 673 s
42 | O=C(CN1C(=O)c2cccnc2Sc2ccccc21)NCCc1c[nH]c2ccccc12 | 773 s
43 | COC(=O)c1[nH]c(C)c(C(=O)C(C)N(C(=O)c2ccccc2)C2CCCCC2)c1C (stereo not drawn) | 941 s
